In US20230272357A1, “METHODS OF GENOME EDITING INCLUDING CONTROLLED OPENING OF CHROMATIN” (Wisconsin Alumni Research Foundation, priority 2021, published 2023):
Entries after “also recorded” stand apart in the source; their conditions may differ.

How the values were obtained:
Format in all cases: cell-based, human
iPSCs = assay: Single-cell ATAC sequencing, local chromatin accessibility; settings: upon TSA treatment, data not shown
Protocol: Briefly, 1,50,000 cells were added to a 2 mL microcentrifuge tube and centrifuged at 300 g for 45 min at 4° C. The supernatant was removed without disrupting the cell pellet, and 100 μL chilled Lysis Buffer (10 mM Tris-HCl (pH 7.4), 10 mM NaCl, 3 mM MgCl2, 0.1% Tween-20, 0.1% Nonidet® P40 Substitute, 0.01% digitonin and 1% BSA) was added and mixed 10 times. The microcentrifuge tube was then incubated on ice for 5 min. Following lysis, 1 ml chilled Wash Buffer (10 mM Tris-HCl (pH 7.4), 10 mM NaCl, 3 mM MgCl2, 0.1% Tween-20 and 1% BSA) was added and the resulting solution was mixed 5 times. Nuclei were centrifuged at 500 g for 5 min at 4° C. and the supernatant was removed without disrupting the nuclei pellet. Nuclei were resuspended in chilled Diluted Nuclei Buffer (10× Genomics; 2000153) at approximately 6,000 nuclei per μL. The resulting nuclei concentration was then determined with a Countess® II FL Automated Cell Counter using trypan blue inclusion. Nuclei were then immediately used to generate scATAC-seq libraries according to the Chromium Single Cell ATAC Reagent Kits User Guide v1.1 (10× Genomics; 000209 Rev D). Libraries were sequenced using the Illumina NovaSeq 6000 system using S1 flow cell and target depth of 30k-37k reads/nuclei. FASTQ files were aligned with Cellranger ATAC 2.0 to custom reference Human GRCh38 genome. […]

[1] = test system: HIST1H2BJ-GFP, AAVS1 (S8, S10), EMX1, VEGFA, TRAC (S2, S3) loci; assay: Deep sequencing (NGS) of edited iPSCs at open and closed chromatin loci
Protocol: Next Generation Sequencing of genomic DNA: DNA was isolated from iPSCs by adding 50 μL of DNA QuickExtract™/well (Epicentre) following treatment by Accutase™ and centrifugation. The DNA extract solution was incubated at 65° C. for 15 min, 68° C. for 15 min, and finally 98° C. for 10 min. Genomic PCR was performed according to the manufacturer's instructions using Q5 Hot Start polymerase (NEB). Sequencing indices were added with a second round of PCR using indexing primers (IDT), followed by a purification using AMPure XP magnetic bead purification kit (Beckman Coulter). Samples were pooled and sequenced on an Illumina® MiniSeq at a run length of 1×150 bp or 2×150 bp according to the manufacturer's instructions. Analysis was performed using CRISPR RGEN.
Multiple gRNA sequences targeting different sites of open (HIST1H2BJ and AAVS1) and closed chromatin (TRAC, VEGFA, EMX1) were selected to investigate if the observed TSA-induced increase in gene-editing efficiency at HIST1H2BJ-GFP locus is specific to the gRNA sequence or the chromatin state of the target locus. To gain a more detailed analysis of gene-edited events in iPSCs, deep sequencing was performed on edited cells obtained after TSA treatment. The genomic DNA was harvested on day 6 after Cas9 RNP delivery. PCR using primers flanking the gRNA target sites was then performed and prepared for next-generation sequencing (NGS) using the Illumina® MiniSeq™ system. […] Corroborating with this observation, we noted an increase in the local chromatin accessibility at the on-target sites upon TSA treatment (Data not shown). […] The highest frequency of indels was found three to four nucleotides upstream from the protospacer adjacent motif (PAM) sequence, consistent with reports of type II CRISPR systems (FIG. 2C,E). Furthermore, edited reads contained higher deletion events (approximately 50-80%) than insertion events (approximately 5-20%). Similar observations were reported in deep sequencing analysis of human cells edited by S. Pyogenes Cas9 (SpyCas9). The percentage of edited reads with Single Nucleotide Polymorphisms (SNPs) decreased upon chromatin decondensation via TSA treatment (FIG. 2F), while the relative distribution of SNPs around the cut site remained similar (data not shown). This is consistent with reports that indicate nucleosomes are enriched in SNPs.

edited iPSC clones = assay: G-banded karyotyping of edited iPSC clones; settings: 6.25 ng/mL TSA
Protocol: Karyotyping: Cells cultured for at least 5 passages were grown to 60-80% confluence and shipped for karyotype analysis to WiCell Research Institute, Madison, Wis. G-banded karyotyping was performed using standard cytogenetic protocols. Metaphase preparations were digitally captured with Applied Spectral Imaging software and hardware. For each cell line, 20 GTL-banded metaphases were counted, of which a minimum of 5 were analyzed and karyotyped. Results were reported in accordance with guidelines established by the International System for Cytogenetic Nomenclature 2016.

[2] = test system: HIST1H2BJ-GFP reporter iPSC nuclei; assay: Live in situ nuclear imaging of chromatin condensation (CellProfiler); settings: TSA 0, 3.13, 6.25, 12.5 ng/mL, FIG. 1C,D
Protocol: Antibodies and Staining: All cells were fixed for 15 minutes with 4% paraformaldehyde in PBS (Sigma-Aldrich, St. Louis, Mo.) and permeabilized with 0.5% Triton™-X (Sigma-Aldrich) for >4 hours at room temperature before staining. Hoechst (H1399; Thermo Fisher Scientific, Waltham, Mass.) was used at 5 μg/mL with 15 min incubation at room temperature to stain nuclei. Primary antibodies were applied overnight at 4° C. in a blocking buffer of 5% donkey serum (Sigma-Aldrich) at the following concentrations: H3K9Me3 (ab8898; Abcam) 1:500; H3K9Ac (39918; Active Motif) 1:100; H3K27Me3 (C36B11; Cell Signaling Technology) 1:200. […]
After streamlining the gene editing strategy, the effect of TSA treatment on the gene editing efficiency of iPSCs was examined The iPSCs were pre-treated with TSA (0, 3.13, 6.25, and 12.5 ng/mL) and their nuclei imaged. […] The images were then used as inputs for a CellProfiler software pipeline to output the chromatin condensation % of the nuclei (data not shown), defined as the ratio of total heterochromatin intensity to the total nuclear intensity. […]

[3] = edited iPSCs obtained after TSA treatment, all loci
[4] = seven loci, change upon TSA treatment

Structure (SMILES): CC(/C=C/C(=O)NO)=C\[C@@H](C)C(=O)c1ccc(N(C)C)cc1 [TSA, Trichostatin A]
- Local chromatin accessibility at the off-target sites (iPSCs): no significant increase
- Local chromatin accessibility at the on-target sites (iPSCs): increase
- Deletion events in edited reads [1, 3]: 50-80%
- Insertion events in edited reads [1, 3]: 5-20%
- % edited reads with insertions [1, 4]: no significant change; also recorded: did not undergo significant change
- % edited reads with only SNPs [1, 4]: decreased
- % editing efficiency by deep sequencing ([1]; seven open and closed loci, day 6, TSA vs 0 ng/mL): increased
- Karyotype abnormality in one clone (#5) (edited iPSC clones; FIG. 4E, known recurrent duplication in pluripotent stem cell cultures): interstitial duplication in the long (q) arm of chromosome 20 in five of the twenty cells examined
- Karyotype of edited iPSC clones (edited iPSC clones; five clones, HIST1H2BJ-GFP locus): no genomic abnormalities in four of the five clones; also recorded: normal karyotype
- Chromatin condensation % (heterochromatin intensity to total nuclear intensity) [2]: decrease
